Laboratory results as given in ChEMBL document CHEMBL1201862, “PubChem BioAssay data set” (2004).
Active and inactive are the calls of the source.

Key:
P388/ADR = test: cells; assay type: functional; settings: Mus musculus
SN12K1 = test: cells; assay type: functional; settings: Homo sapiens
P388 = test: cells; assay type: functional; settings: Mus musculus
HEK293 [1] = test: HEK293T cell viability loss, resazurin readout – resazurin fluorescence, cytotoxicity control for NF-kB activator project, SAR follow-up (AID 493251); assay type: functional, cell-based; settings: Homo sapiens
HEK293 [2] = test: inhibition of NOD1-driven NF-kB reporter – cell-based, luminescence, uHTS, primary screen (AID 1578); assay type: functional; settings: Homo sapiens
HEK293 [3] = test: cells; assay type: functional, cell-based; settings: Homo sapiens
[4] = A Cell Based Secondary Assay To Explore Cytotoxicity of Compounds that Sensitize Mycobacterium Tuberculosis to Beta-Lactam Antibiotics.; assay type: functional
Vero [5] = test: mammalian cell viability reduction – secondary assay, cytotoxicity control for West Nile virus antiviral project, dose response (AID 1650); assay type: functional; settings: Chlorocebus sabaeus
HEK293 [6] = test: cells; assay type: functional, cell-based; settings: Homo sapiens; remark: listed apart in the source
HEK293 [7] = test: NOD2 signaling inhibitors in MDP-stimulated cells, cell-based, uHTS, luminescence (AID 2001); assay type: functional; settings: Homo sapiens
Vero [8] = test: cells; assay type: functional, cell-based; settings: Chlorocebus sabaeus
Vero [9] = test: cells; assay type: functional; settings: Chlorocebus sabaeus
[10] = system: Streptococcus sp. 'group A'; test: Streptococcus pyogenes SK(-)GAS viability under kanamycin – luminescence, BacTiterGlo, confirmation, counter-screen for streptokinase expression inhibitor project, dose response (AID 1900); assay type: functional, organism-based
Streptokinase A = molecular target: T1, Streptokinase A (Streptococcus pyogenes serotype M1, UniProt P10520); test: viability-normalized secreted streptokinase activity reduction – plasminogen activation absorbance, OD405, dose response (AID 1914); assay type: functional, Streptococcus pyogenes M1 GAS;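 also: secreted streptokinase activity via plasminogen activation per viability signal from cell pellet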
T1 sequence (P10520 whole entry): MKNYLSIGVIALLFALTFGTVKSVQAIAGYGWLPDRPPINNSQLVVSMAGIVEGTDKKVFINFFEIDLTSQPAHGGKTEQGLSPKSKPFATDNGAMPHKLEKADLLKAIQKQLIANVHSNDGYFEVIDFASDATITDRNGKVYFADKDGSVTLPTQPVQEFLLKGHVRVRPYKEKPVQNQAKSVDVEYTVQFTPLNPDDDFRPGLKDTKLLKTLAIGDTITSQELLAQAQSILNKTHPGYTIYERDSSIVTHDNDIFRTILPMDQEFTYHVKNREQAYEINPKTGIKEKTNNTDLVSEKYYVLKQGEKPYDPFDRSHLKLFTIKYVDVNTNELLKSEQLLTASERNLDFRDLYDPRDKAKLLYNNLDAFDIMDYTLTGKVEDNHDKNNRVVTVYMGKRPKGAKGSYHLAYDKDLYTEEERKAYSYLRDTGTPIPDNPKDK

[11] = HPDE-C7 pancreatic duct cell viability loss – fluorescence, HTS (AID 430); assay type: functional, cell-based; settings: Homo sapiens
[12] = viability loss of HPDE-C7K cells – cell-based, fluorescence, HTS, primary screen (AID 431); assay type: functional; settings: Homo sapiens
[13] = viability of PTEN-deleted HCT116 cells – cell-based, HCT116 PTEN knockout, dose response (AID 1047); assay type: functional;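 also: HCT116 colon tumor cells with PTEN knocked out; cells exposed to compound for 60 hours before readout; potency for loss of cell viability measured by luminescence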
[14] = viability of HCT116 lacking mutant beta-catenin – cell-based, human colon tumor, dose response (AID 1045); assay type: functional;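 also: HCT116 colon tumor cells with beta catenin knocked out; cells exposed to compound for 60 hours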
Streptococcus = test: GAS UMAA2166 growth inhibition – luminescence, BacTiterGlo, counter-screen for streptokinase expression inhibitor project, dose response (AID 1915); assay type: functional, organism-based;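 also: potency for reduction of bacterial viability or growth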
Bcl-2-related protein A1 = molecular target: T2, Bcl-2-related protein A1 (Mus musculus, UniProt Q07440); assay type: functional;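 also: confirmatory dose–response counterscreen on Bfl-1, used to check hits from a UBC13 polyubiquitin inhibitor campaign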
T2 sequence (Q07440 whole entry): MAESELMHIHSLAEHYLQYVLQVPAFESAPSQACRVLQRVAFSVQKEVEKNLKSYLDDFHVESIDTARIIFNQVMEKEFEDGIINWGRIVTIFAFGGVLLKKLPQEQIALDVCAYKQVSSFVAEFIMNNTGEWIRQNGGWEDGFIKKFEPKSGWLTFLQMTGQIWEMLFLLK

[15] = molecular target: T3, Ubiquitin-conjugating enzyme E2 N (Homo sapiens, UniProt P61088); assay type: functional
T3 sequence (P61088 whole entry): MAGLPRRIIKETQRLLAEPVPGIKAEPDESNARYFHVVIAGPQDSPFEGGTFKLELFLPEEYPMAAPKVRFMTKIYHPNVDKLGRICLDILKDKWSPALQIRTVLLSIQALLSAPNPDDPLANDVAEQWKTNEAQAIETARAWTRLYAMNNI

[16] = molecular target: T3, Ubiquitin-conjugating enzyme E2 N; assay type: functional; remark: listed apart in the source
[17] = molecular target: T4, Long-chain-fatty-acid--AMP ligase FadD28 (Mycobacterium tuberculosis, UniProt P9WQ59); test: Fluorescence polarization aasay to screen for inhibitors that compete for the binding of FadD28 to a bisubstrate Measured in Biochemical System Using Plate Reader - 2147-01_Inhibitor_Dose_CherryPick_Activity.; assay type: functional, Mycobacterium tuberculosis H37Rv
T4 sequence (P9WQ59 whole entry): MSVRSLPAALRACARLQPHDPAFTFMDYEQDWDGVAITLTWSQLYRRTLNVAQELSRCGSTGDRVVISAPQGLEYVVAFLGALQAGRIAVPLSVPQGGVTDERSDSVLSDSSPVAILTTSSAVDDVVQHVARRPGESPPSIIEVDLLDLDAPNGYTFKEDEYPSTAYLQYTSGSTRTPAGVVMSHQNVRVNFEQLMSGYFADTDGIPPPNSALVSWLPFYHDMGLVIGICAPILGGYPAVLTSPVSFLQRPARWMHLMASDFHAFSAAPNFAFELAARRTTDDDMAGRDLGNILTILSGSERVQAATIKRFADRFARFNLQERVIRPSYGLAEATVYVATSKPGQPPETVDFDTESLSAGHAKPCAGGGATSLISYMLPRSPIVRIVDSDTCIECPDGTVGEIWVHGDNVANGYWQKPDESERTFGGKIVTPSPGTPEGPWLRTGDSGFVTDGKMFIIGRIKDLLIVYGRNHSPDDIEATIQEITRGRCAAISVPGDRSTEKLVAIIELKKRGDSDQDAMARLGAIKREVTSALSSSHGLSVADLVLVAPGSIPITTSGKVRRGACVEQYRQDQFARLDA

[18] = molecular target: T5, RNA-binding protein pos-1 (Caenorhabditis elegans, UniProt G5EF15); test: disruptors of C. elegans POS-1 RNA interaction – biochemical, fluorescence polarization, dose response (AID 1964);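 also: purified POS-1 fused to maltose binding protein made in E. coli; potency of compounds blocking POS-1 binding to fluorescent RNA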
T5 sequence (G5EF15 whole entry): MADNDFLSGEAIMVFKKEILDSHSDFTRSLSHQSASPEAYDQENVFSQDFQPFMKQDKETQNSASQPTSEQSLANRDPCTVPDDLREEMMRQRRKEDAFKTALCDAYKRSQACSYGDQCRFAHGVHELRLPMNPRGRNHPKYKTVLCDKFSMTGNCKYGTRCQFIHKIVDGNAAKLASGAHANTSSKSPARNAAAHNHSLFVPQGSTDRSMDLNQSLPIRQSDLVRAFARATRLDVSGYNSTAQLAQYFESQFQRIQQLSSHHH

[19] = molecular target: T6, Zinc finger protein mex-5 (Caenorhabditis elegans, UniProt Q9XUB2); test: potency of MEX-5 RNA-binding blockers – biochemical, C. elegans, fluorescence polarization, dose response (AID 1960)
T6 sequence (Q9XUB2 whole entry): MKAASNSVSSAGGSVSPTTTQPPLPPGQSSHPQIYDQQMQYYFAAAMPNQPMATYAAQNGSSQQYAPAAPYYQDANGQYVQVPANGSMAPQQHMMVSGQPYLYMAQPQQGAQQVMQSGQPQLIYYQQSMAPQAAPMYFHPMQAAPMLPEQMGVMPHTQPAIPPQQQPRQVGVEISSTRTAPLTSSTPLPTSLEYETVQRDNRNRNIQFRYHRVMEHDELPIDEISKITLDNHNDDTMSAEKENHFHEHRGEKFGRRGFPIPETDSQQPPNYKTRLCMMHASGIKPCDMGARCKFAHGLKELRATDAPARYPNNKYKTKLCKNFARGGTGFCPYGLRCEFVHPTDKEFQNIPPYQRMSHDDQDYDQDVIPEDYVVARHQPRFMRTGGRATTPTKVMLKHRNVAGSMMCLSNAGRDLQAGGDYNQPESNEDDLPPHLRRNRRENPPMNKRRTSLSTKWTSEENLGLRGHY

[20] = molecular target: T7, DNA repair and recombination protein RAD54-like (Homo sapiens, UniProt Q92698); test: RAD54 Holliday junction migration blockers – biochemical, fluorescence, cherry-picked samples, dose series, confirmation (AID 651657); assay type: functional
T7 sequence (Q92698 whole entry): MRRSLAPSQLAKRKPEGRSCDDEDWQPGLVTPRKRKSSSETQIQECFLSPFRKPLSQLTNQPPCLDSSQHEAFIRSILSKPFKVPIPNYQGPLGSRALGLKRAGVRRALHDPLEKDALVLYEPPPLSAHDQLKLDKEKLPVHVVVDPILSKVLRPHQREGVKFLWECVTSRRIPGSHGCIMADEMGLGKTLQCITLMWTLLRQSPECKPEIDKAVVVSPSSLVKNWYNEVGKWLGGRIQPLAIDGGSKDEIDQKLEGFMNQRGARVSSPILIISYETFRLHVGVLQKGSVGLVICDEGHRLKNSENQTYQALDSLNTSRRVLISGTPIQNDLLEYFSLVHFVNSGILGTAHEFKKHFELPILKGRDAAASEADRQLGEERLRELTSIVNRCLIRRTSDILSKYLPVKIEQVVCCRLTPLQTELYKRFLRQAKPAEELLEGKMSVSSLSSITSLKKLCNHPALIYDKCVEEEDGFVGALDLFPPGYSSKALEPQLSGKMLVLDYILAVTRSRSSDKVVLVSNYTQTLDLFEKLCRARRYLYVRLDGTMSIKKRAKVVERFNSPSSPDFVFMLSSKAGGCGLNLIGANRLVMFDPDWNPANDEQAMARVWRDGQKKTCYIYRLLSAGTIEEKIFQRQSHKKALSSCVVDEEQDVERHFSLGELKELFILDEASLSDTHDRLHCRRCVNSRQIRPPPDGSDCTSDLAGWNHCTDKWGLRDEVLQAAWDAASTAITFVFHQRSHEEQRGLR

[21] = molecular target: T8, DNA repair protein RAD52 homolog (Homo sapiens, UniProt P43351); assay type: functional, biochemical
T8 sequence (P43351 whole entry): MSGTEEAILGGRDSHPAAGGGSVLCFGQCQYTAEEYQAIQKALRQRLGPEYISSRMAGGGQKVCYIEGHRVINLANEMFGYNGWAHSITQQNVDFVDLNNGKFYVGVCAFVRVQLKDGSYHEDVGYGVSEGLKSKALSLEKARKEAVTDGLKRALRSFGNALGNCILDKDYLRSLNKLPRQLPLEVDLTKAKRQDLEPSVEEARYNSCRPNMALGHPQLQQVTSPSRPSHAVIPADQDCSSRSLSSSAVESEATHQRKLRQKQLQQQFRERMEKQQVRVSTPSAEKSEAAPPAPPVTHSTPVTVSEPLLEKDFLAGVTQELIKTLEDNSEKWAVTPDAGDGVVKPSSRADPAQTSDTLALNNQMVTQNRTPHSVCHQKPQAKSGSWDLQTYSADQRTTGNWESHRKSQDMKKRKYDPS

O=c1cc[nH]c(=O)[nH]1 [URACIL]
GI50 (P388/ADR): 292 µM (inactive) | GI50 (SN12K1): 315 µM (inactive) | GI50 (P388): 164 µM (inactive)

COc1ccc(-c2nc(CSCC(=O)NC3CC3)c(C)o2)cc1
IC50 (HEK293 [1]): > 80 µM (inactive)

Cn1c(/C=C/c2ccc(Cl)cc2)c([N+](=O)[O-])c(=O)n(C)c1=O
EC50 (HEK293 [2]): 16 µM (active) | IC50 (HEK293 [3]): 8.13 µM (active) | CC50 [4]: 30 µM (active) | CC50 (Vero [5]): 15.7 µM (active) | IC50 (HEK293 [6]): > 20 µM (inactive) | IC50 (HEK293 [7]): 8.84 µM (active) | IC50 (Vero [8]): > 25 µM (active) | CC50 (Vero [9]): 19.1 µM (active)

CCCCCCCCCCCCCCC[C@@H](O)[C@@H](N)CO [DIHYDROSPINGOSINE]
EC50 [10]: 1.34 µM (active) | EC50 (Streptokinase A): > 150 µM (not active) | EC50 [11]: 14 µM (active) | EC50 [12]: 9.93 µM (active) | EC50 [13]: 8.66 µM (active) | EC50 [14]: 7.58 µM (active) | EC50 (Streptococcus): 8.91 µM (active) | IC50 (Bcl-2-related protein A1): > 20 µM (inactive) | IC50 [15]: 15.5 µM (active) | IC50 [16]: 13.4 µM (active) | IC50 (Vero [8]): > 25 µM (active) | AC50 [17]: 5.6 µM (active)

CCNC(=O)c1cc2c(=O)n3cccc(C)c3nc2n(CCc2ccccc2)c1=N
EC50 [18]: 4.95 µM (inconclusive) | EC50 [19]: 30 µM (active) | AC50 [20]: 17.9 µM (active)

Cc1ccc2nc3c(C(=O)NCCN(C)C)cccc3cc2c1
GI50 (P388/ADR): 1.85 µM (inactive) | GI50 (SN12K1): 0.968 µM (active) | GI50 (P388): 0.414 µM (active)

CC1OC1C(=O)C1(O)C(C)C(O)C23OC2(C(O)c2c(O)cccc2C3=O)C1O (stereo not given) [CERVICARCIN]
GI50 (P388/ADR): 0.18 µM (active) | GI50 (SN12K1): 0.225 µM (active) | GI50 (P388): 0.144 µM (active)

COc1ccc2c3c1O[C@H]1C[C@@H](O)C=C[C@@]31CCN(C)C2 [GALANTAMINE]
GI50 (P388/ADR): > 150 µM (inactive) | GI50 (SN12K1): > 150 µM (inactive) | GI50 (P388): > 150 µM (inactive)

N=c1c(C(=O)NCCN2CCOCC2)cc2c(=O)n3ccccc3nc2n1CCc1ccccc1
EC50 [18]: > 300 µM (not active) | EC50 [19]: > 300 µM (not active) | AC50 [20]: 25.2 µM (active) | AC50 [21]: 10.5 µM (active)
